The text below walks through data of US20210290575A1, “METHODS AND COMPOSITIONS FOR IDENTIFICATION AND MODULATION OF MICROBIOME BIOCHEMICAL PATHWAYS TO ALTER PHENOTYPE” (Cybele Microbiome, Inc., priority 2017, published 2021).

For this assay, the system named is Rhipicephalus microplus. In words: Tick repellency of compounds produced on tick-resistant versus tick-susceptible cattle breeds. To be noted: compound produced on host; ticks on cattle (Nelore vs Holstein). The text has this: The tick Rhipicephalus microplus specializes on cattle and other large bovids. However, success of its blood-feeding depends on the breed of the bovine host. In an indicine and a taurine breed of cattle that present contrasting phenotypes of infestation, Nelore and Holstein, respectively, resistant and susceptible to tick infestations as ascertained by the number of ticks and the reproductive success of female ticks completing their life-cycles on these two types of host.
At the same time, different levels of host immunity may affect the composition of tick saliva, contributing to these outcomes.

As for `CC(=O)CCC=C(C)C` [6-methyl-5-hepten-2-one], the “repellency (result in words)” value is “repellent”.
